Like-named read-outs stand apart in the source and are kept apart here.
Assays:
[1] = tested on: CQ-resistant strain of P. falciparum (K1); experiment: in vitro antiplasmodium assay (parasite lactate dehydrogenase), CQ-resistant strain; type: cell-based, Plasmodium falciparum; settings: for IC50: Plasmodium falciparum; for activity lowered by omitting the 7-chlorine atom: CQ-resistant strain, versus 7-chloro analogues
[2] = tested on: CQ-sensitive strain of P. falciparum (NF54); experiment: in vitro antiplasmodium assay (parasite lactate dehydrogenase), CQ-sensitive strain; type: cell-based, Plasmodium falciparum; settings: for IC50: Plasmodium falciparum
[3] = tested on: Chinese hamster ovarian (CHO) cells; experiment: in vitro cytotoxicity, MTT-assay; type: cell-based; settings: for IC50: Cricetulus griseus, CHO; for SI (selectivity index): IC50 CHO/IC50 NF54
Method: An antiplasmodium assay was performed on this set of 18 novel quinoline-piperidine analogues to establish their potential as antimalarial agents. […] All compounds were screened for in vitro antiplasmodium activity against a CQ-sensitive strain of P. falciparum (NF54). Subsequently, compounds showing promising antiplasmodium activity were also tested against a CQ-resistant strain of P. falciparum (K1) and analysed for in vitro cytotoxicity against a mammalian cell line, Chinese hamster ovarian (CHO) cells, using the 3-(4,5-dimethylthiazol-2-yl)-2,5-diphenyltetrazoliumbromide (MTT)-assay. Continuous in vitro cultures of asexual erythrocyte stages of P. falciparum were maintained using a modified method of Trager and Jensen, and quantitative assessment of antiplasmodium activity in vitro was determined via the parasite lactate dehydrogenase assay using a modified method described by Makler. The test samples were tested in triplicate on one occasion. The MTT-assay was used as a colorimetric assay for cellular growth and survival, and compares well with other available assays. The tetrazolium salt MTT was used to measure all growth and chemosensitivity. Again, samples were tested in triplicate on one occasion. Chloroquine was used as reference compound in both antiplasmodium screenings, while emetine was used as known antiprotozoal agent in the MTT-assay.
The same stock solutions prepared for antiplasmodium testing were used for cytotoxicity testing. Test compounds were stored at −20 °C until use. Dilutions were prepared on the day of the experiment. Emetine was used as the reference drug in all experiments. The initial concentration of emetine was 100 μg/ml, which was serially diluted in complete medium with 10-fold dilutions to give 6 concentrations, the lowest being 0.001 μg/ml. The same dilution technique was applied to all the test samples. The highest concentration of solvent to which the cells were exposed to had no measurable effect on the cell viability (data not shown). The 50% inhibitory concentration (IC50) values were obtained from full dose-response curves, using a non-linear dose-response curve fitting analysis via GraphPad Prism v.4 software.

[4] = CQ-resistant P. falciparum K1, mean ± SD, read-out: K1 IC50
[5] = CQ-sensitive P. falciparum NF54, mean ± SD, read-out: NF54 IC50
[6] = cytotoxicity, CHO cells, MTT, mean ± SD

SMILES: C=CCN1C[C@@H](OCc2ccccc2)[C@@H](CNCc2ccnc3ccccc23)C(C)(C)C1 (relative stereo) [Compound 17a, N-[(cis-1-Allyl-5-benzyloxy-3,3-dimethylpiperidin-4-yl)methyl]-1-(quinolin-4-yl)methanamine]
- IC50 [1, 4]: 3.66 ± 0.43 µM
- IC50 [2, 5]: 2.37 ± 1.05 µM
- IC50 [3, 6]: 139 ± 14.1 µM
- SI (selectivity index) [3]: 59

SMILES: Clc1ccc2c(NCC3CC4(c5ccccc5)CCN3C4)ccnc2c1 (centres unmarked) [Compound 11a, 7-Chloro-N-[(4-phenyl-1-azabicyclo[2.2.1]heptan-2-yl)methyl]quinolin-4-amine]
- IC50 [1, 4]: 0.033 ± 0.0062 µM
- IC50 [2, 5]: 0.021 ± 0.005 µM
- IC50 [3, 6]: 26 ± 2.9 µM
- SI (selectivity index) [3]: 1266

SMILES: c1ccc(C23CCN(C2)C(CNCc2ccc4ccccc4n2)C3)cc1 (centres unmarked) [Compound 12c, N-[(4-Phenyl-1-azabicyclo[2.2.1]heptan-2-yl)methyl]-1-(quinolin-2-yl)methanamine]
- IC50 [2, 5]: 1.27 ± 0.04 µM

SMILES: COc1ccc(CNCC2CC3(c4ccccc4)CCN2C3)cc1 (centres unmarked) [Compound 7, 2-[N-(4-methoxybenzyl)aminomethyl]-4-phenyl-1-azabicyclo[2.2.1]heptane]
- IC50 [2, 5]: 1.55 ± 0.13 µM
- antiplasmodium activity (in words) ([2]; in vitro, strain not given): moderate antiplasmodium activity

SMILES: C=CCN1CCC(CNCc2ccc3cccc(O)c3n2)C(C)(C)C1 (centres unmarked) [Compound 17e, 2-{N-[(1-Allyl-3,3-dimethylpiperidin-4-yl)methyl]aminomethyl}quinolin-8-ol]
- IC50 [2, 5]: 2.89 ± 1.06 µM

SMILES: C=CCN1C[C@@H](OCc2ccccc2)[C@@H](CNCc2ccc3ccccc3n2)C(C)(C)C1 (relative stereo) [Compound 17c, N-[(cis-1-Allyl-5-benzyloxy-3,3-dimethylpiperidin-4-yl)methyl]-1-(quinolin-2-yl)methanamine]
- IC50 [1, 4]: 2.82 ± 0.14 µM
- IC50 [2, 5]: 1.57 ± 0.17 µM
- IC50 [3, 6]: 211 ± 31.4 µM
- SI (selectivity index) [3]: 134

SMILES: CCN(CC)CCCC(C)Nc1ccnc2cc(Cl)ccc12 (centres unmarked) [Chloroquine, reference compound]
- IC50 ([1]; K1, read-out: IC50 (K1)): 0.167 µM
- IC50 ([2]; NF54, read-out: IC50 (NF54), footnote reference value, subset c): 0.0113 µM
- IC50 ([2]; NF54, read-out: IC50 (NF54), footnote reference value, subset d): 0.0095 µM
- IC50 ([2]; NF54, read-out: IC50 (NF54), footnote reference value, subset e): 0.02 µM
- IC50 ([2]; NF54, read-out: NF54 IC50, reference value for compound subset c): 0.011 ± 0.001 µM
- IC50 ([2]; NF54, read-out: NF54 IC50, reference value for compound subset d): 0.01 µM
- IC50 ([2]; NF54, read-out: NF54 IC50, reference value for compound subset e): 0.02 µM

SMILES: C=CCN1CCC(CNCc2ccnc3ccccc23)C(C)(C)C1 (centres unmarked) [Compound 17b, N-[(1-Allyl-3,3-dimethylpiperidin-4-yl)methyl]-1-(quinolin-4-yl)methanamine]
- IC50 [2, 5]: 4.94 ± 1.18 µM

SMILES: C=CCN1CCC(CNCc2ccc3ccccc3n2)C(C)(C)C1 (centres unmarked) [Compound 17d, N-[(1-Allyl-3,3-dimethylpiperidin-4-yl)methyl]-1-(quinolin-2-yl)methanamine]
- IC50 [2, 5]: 3.66 ± 0.82 µM

SMILES: Clc1nc2ccccc2cc1CNCC1CC2(c3ccccc3)CCN1C2 (centres unmarked) [Compound 12e, N-[(4-Phenyl-1-azabicyclo[2.2.1]heptan-2-yl)methyl]-1-(2-chloroquinolin-3-yl)methanamine]
- IC50 [2, 5]: 3.6 ± 0.31 µM

SMILES: C=CCN1C[C@@H](OCc2ccccc2)[C@@H](CNCc2cc3ccccc3nc2Cl)C(C)(C)C1 (relative stereo) [Compound 17f, N-[(cis-1-Allyl-5-benzyloxy-3,3-dimethylpiperidin-4-yl)methyl]-1-(2-chloroquinolin-3-yl)methanamine]
- IC50 [1, 4]: 1.95 ± 0.078 µM
- IC50 [2, 5]: 1.28 ± 0.33 µM
- IC50 [3, 6]: 199 ± 23.3 µM
- SI (selectivity index) [3]: 156

SMILES: c1ccc(C23CCN(C2)C(CNCc2cnc4ccccc4c2)C3)cc1 (centres unmarked) [Compound 12b, N-[(4-Phenyl-1-azabicyclo[2.2.1]heptan-2-yl)methyl]-1-(quinolin-3-yl)methanamine]
- IC50 [2, 5]: 4.07 ± 0.74 µM

SMILES: CC[C@H]1CN2CCc3cc(OC)c(OC)cc3[C@@H]2C[C@@H]1C[C@H]1NCCc2cc(OC)c(OC)cc21 [Emetine, reference compound]
- IC50 ([3]; reference value for compound subset c): 0.04 ± 0.01 µM
- IC50 ([3]; reference value for compound subset d): 0.14 µM
- IC50 ([3]; reference value for compound subset e): 0.03 µM

SMILES: C=CCN1C[C@@H](OCc2ccccc2)[C@@H](CNc2ccnc3cc(Cl)ccc23)C(C)(C)C1 (relative stereo) [Compound 16a, N-[(cis-1-Allyl-5-benzyloxy-3,3-dimethylpiperidin-4-yl)methyl]-7-chloroquinolin-4-amine]
- IC50 [1, 4]: 0.026 ± 0.0057 µM
- IC50 [2, 5]: 0.012 ± 0.001 µM
- IC50 [3, 6]: 122 ± 41.4 µM
- SI (selectivity index) [3]: 10,149

SMILES: C=CCN1CCC(CNc2ccnc3ccccc23)C(C)(C)C1 (centres unmarked) [Compound 16c, N-[(1-Allyl-3,3-dimethylpiperidin-4-yl)methyl]quinolin-4-amine]
- activity lowered by omitting the 7-chlorine atom [1]: 2 to 3 times
- IC50 [1, 4]: 0.0685 ± 0.0078 µM
- IC50 [2, 5]: 0.236 ± 0.032 µM
- IC50 [3, 6]: 27 ± 3.2 µM
- SI (selectivity index) [3]: 114

SMILES: C=CCN1C[C@@H](OC)[C@@H](CNCc2ccnc3ccccc23)C(C)(C)C1 (relative stereo) [Compound 17h, N-[(cis-1-Allyl-5-methoxy-3,3-dimethylpiperidin-4-yl)methyl]-1-(quinolin-4-yl)methanamine]
- IC50 [2, 5]: 18 ± 2.44 µM

SMILES: c1ccc(C23CCN(C2)C(CNc2ccnc4ccccc24)C3)cc1 (centres unmarked) [Compound 11b, N-[(4-Phenyl-1-azabicyclo[2.2.1]heptan-2-yl)methyl]quinolin-4-amine]
- activity lowered by omitting the 7-chlorine atom [1]: 2 to 3 times
- IC50 [1, 4]: 0.069 ± 0.0113 µM
- IC50 [2, 5]: 0.045 ± 0.007 µM
- IC50 [3, 6]: 11.2 ± 2.1 µM
- SI (selectivity index) [3]: 250

SMILES: C=CCN1CCC(CNc2ccnc3cc(Cl)ccc23)C(C)(C)C1 (centres unmarked) [Compound 16b, N-[(1-Allyl-3,3-dimethylpiperidin-4-yl)methyl]-7-chloroquinolin-4-amine]
- IC50 [1, 4]: 0.025 ± 0.0089 µM
- IC50 [2, 5]: 0.015 ± 0.0017 µM
- IC50 [3, 6]: 29.9 ± 1.2 µM
- SI (selectivity index) [3]: 1991

SMILES: C=CCN1CCC(CNCc2cc3ccccc3nc2Cl)C(C)(C)C1 (centres unmarked) [Compound 17g, N-[(1-Allyl-3,3-dimethylpiperidin-4-yl)methyl]-1-(2-chloroquinolin-3-yl)methanamine]
- IC50 [2, 5]: 7.75 ± 1.44 µM

SMILES: c1ccc(C23CCN(C2)C(CNCc2ccnc4ccccc24)C3)cc1 (centres unmarked) [Compound 12a, N-[(4-Phenyl-1-azabicyclo[2.2.1]heptan-2-yl)methyl]-1-(quinolin-4-yl)methanamine]
- IC50 [2, 5]: 6.77 ± 0.25 µM

SMILES: Oc1cccc2ccc(CNCC3CC4(c5ccccc5)CCN3C4)nc12 (centres unmarked) [Compound 12d, 2-{N-[(4-Phenyl-1-azabicyclo[2.2.1]heptan-2-yl)methyl]aminomethyl}quinolin-8-ol]
- IC50 [1, 4]: 4.64 ± 0.13 µM
- IC50 [2, 5]: 0.72 ± 0.03 µM
- IC50 [3, 6]: 103 ± 19.7 µM
- SI (selectivity index) [3]: 142

— article PMC7294232, “Synthesis and biological evaluation of novel quinoline-piperidine scaffolds as antiplasmodium agents” (European Journal of Medicinal Chemistry, 2020)
